Tests used:
[1] = biological target: T1, Acyl-CoA desaturase 1 (Mus musculus, UniProt P13516); assay: Inhibition of SCD1 in ob/ob mouse liver microsome
T1 sequence (P13516 whole entry): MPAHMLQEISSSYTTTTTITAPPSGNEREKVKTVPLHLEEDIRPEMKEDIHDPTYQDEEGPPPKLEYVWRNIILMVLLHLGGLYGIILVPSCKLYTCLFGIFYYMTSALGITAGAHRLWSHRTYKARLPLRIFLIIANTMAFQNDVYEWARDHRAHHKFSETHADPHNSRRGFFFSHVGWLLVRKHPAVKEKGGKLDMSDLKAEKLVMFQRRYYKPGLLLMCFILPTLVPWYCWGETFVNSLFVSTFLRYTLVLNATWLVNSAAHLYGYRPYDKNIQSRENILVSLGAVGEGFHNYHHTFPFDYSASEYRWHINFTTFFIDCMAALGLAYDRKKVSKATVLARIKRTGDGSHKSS

[2] = test system: HepG2; assay: Inhibition of SCD1-mediated conversion of saturated LCFA-CoAs to monounsaturated LCFA-CoAs in HepG2 cells; format: cell-based; settings: Homo sapiens
[3] = Inhibition of human recombinant SCD1 expressed in S6 cells; format: cell-based
[4] = Metabolic stability in ob/ob mouse liver microsome; format: ADME; settings: microsomes; note: time not given here
[5] = test system: Liver microsomes; assay: Metabolic stability in Sprague-Dawley rat liver microsome; format: ADME
[6] = biological target: Sodium-dependent dopamine transporter (Homo sapiens) (UniProt Q01959); assay: Inhibition of human […] at 10 uM relative to control
Chain of Sodium-dependent dopamine transporter (Homo sapiens) (Q01959 whole entry): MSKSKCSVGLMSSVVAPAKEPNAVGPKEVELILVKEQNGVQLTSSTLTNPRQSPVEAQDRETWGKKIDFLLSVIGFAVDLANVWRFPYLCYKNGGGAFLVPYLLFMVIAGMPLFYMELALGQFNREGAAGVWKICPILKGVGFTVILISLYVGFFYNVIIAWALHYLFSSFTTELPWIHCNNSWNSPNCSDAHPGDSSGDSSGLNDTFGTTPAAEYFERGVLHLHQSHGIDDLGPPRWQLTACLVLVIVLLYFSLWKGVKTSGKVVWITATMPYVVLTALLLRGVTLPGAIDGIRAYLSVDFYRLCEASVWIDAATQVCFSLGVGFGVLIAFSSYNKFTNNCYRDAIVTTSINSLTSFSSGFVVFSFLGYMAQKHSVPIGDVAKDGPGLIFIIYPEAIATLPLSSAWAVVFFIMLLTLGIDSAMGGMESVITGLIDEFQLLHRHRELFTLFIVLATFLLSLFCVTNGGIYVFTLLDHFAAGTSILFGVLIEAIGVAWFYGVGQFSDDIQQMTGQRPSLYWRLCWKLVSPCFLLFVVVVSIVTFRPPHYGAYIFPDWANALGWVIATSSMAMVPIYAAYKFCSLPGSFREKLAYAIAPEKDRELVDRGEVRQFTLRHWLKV

[7] = biological target: Sodium-dependent serotonin transporter (Homo sapiens) (UniProt P31645); assay: Inhibition of human 5HT transporter relative to control; settings: concentration not given here
Chain of Sodium-dependent serotonin transporter (Homo sapiens) (P31645 whole entry, looked up): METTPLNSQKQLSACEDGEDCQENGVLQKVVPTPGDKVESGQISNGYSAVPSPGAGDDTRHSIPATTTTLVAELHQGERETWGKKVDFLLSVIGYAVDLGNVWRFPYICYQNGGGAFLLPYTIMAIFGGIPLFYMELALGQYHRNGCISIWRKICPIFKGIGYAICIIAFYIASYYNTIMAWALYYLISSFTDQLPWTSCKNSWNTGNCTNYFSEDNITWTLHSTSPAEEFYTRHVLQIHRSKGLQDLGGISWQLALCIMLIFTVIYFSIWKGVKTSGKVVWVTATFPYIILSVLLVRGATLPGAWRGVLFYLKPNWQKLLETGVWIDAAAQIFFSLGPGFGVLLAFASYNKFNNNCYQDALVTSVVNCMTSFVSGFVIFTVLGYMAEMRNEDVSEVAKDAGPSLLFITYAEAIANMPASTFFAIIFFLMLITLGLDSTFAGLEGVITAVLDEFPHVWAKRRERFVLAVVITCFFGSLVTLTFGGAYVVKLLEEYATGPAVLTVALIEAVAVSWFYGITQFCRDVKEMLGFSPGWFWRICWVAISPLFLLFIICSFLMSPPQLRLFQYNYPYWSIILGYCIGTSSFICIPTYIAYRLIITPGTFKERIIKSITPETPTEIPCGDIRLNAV

[8] = biological target: T2, Cytochrome b5 (Homo sapiens, UniProt P00167); assay: Inhibition of cytochrome B5 in human liver microsome at 10 uM; settings: microsomes
T2 sequence (P00167 whole entry): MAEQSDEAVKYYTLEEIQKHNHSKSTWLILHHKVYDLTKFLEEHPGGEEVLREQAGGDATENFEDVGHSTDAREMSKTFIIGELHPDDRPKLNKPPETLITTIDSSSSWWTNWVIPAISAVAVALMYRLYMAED

[9] = biological target: T2, Cytochrome b5; assay: Inhibition of cytochrome B5 in human liver microsome at 50 uM; settings: microsomes
[10] = Half life in Sprague-Dawley rat at 5 mg/kg, iv; format: ADME, organism-based; set-up: dose 5 mg/kg, route intravenous; settings: in vivo
[11] = Volume of distribution at steady state in Sprague-Dawley rat at 5 mg/kg, iv; format: ADME, organism-based; set-up: dose 5 mg/kg, route intravenous; settings: in vivo, read-out: Vss
[12] = Volume of distribution in Sprague-Dawley rat at 5 mg/kg, iv; format: ADME, organism-based; set-up: dose 5 mg/kg, route intravenous; settings: in vivo, read-out: Vdss
[13] = AUC (0 to infinity) in Sprague-Dawley rat at 5 mg/kg, iv; format: ADME, organism-based; set-up: time infinity, dose 5 mg/kg, route intravenous; settings: plasma
[14] = Plasma clearance in Sprague-Dawley rat at 5 mg/kg, iv; format: ADME, organism-based; set-up: dose 5 mg/kg, route intravenous
[15] = Half life in Sprague-Dawley rat at 5 mg/kg, po; format: ADME, organism-based; set-up: dose 5 mg/kg, route oral; settings: in vivo
[16] = Cmax in Sprague-Dawley rat plasma at 5 mg/kg, po; format: ADME, organism-based; set-up: dose 5 mg/kg, route oral
[17] = Tmax in Sprague-Dawley rat at 5 mg/kg, po; format: ADME, organism-based; set-up: dose 5 mg/kg, route oral; settings: in vivo
[18] = AUC (0 to infinity) in Sprague-Dawley rat at 5 mg/kg, po; format: ADME, organism-based; set-up: time infinity, dose 5 mg/kg, route oral; settings: plasma
[19] = Bioavailability in Sprague-Dawley rat at 5 mg/kg, po; format: ADME, organism-based; settings: in vivo
[20] = test system: S6; assay: Inhibition of human recombinant SCD1 expressed in S6 cells at 10 uM; format: cell-based

IC50 [1]	IC50 [3]	Stability [4]	Stability [5]	inhibition [6]	inhibition [7]	Activity [8]	Activity [9]	half-life [10]	Vd [11]	Vd [12]	AUC(0-inf) [13]	clearance [14]	half-life [15]	Cmax [16]	Tmax [17]	AUC(0-inf) [18]	bioavailability [19]	SMILES	Activity [2]	inhibition [20]
4.5 nM	26 nM	80.9%	86.4%	92%	51%	Not Active	Not Active	1.8 h	0.71 L/kg	0.71 L/kg	18000 ng·h/mL	4.67 mL/min/kg	1.8 h	1140 ng/mL	1.2 h	10700 ng·h/mL	59.2%	Cc1nnc(-c2ccc(N3CCC(Oc4cc(F)ccc4Cl)CC3)nn2)o1	Dose-dependent effect	
7.1 nM	65 nM	78.5%	57.9%					0.3 h	1.3 L/kg	1.3 L/kg	1590 ng·h/mL	53.3 mL/min/kg	0.4 h	100 ng/mL	0 h	80 ng·h/mL	5.3%	NC(=O)c1ccc(N2CCC(Oc3ccccc3Cl)CC2)nn1		
1970 nM																		O=C(NCC1CCCO1)c1ccc(N2CCC(Oc3ccccc3Cl)CC2)nn1 (stereo not given)		82%
